According to ChEMBL document CHEMBL3885881, “DrugMatrix”:

How the values were obtained:
Rattus norvegicus [1] = organism: Rattus norvegicus; assay type: toxicity, organism-based, Sprague-Dawley; settings: in vivo, po, 24 h, route oral GAVAGE, time 1 day, […]; for MEAN CORPUSCULAR HEMOGLOBIN CONCENTRATION / MEAN CORPUSCULAR VOLUME / ABSOLUTE BASOPHIL / ABSOLUTE EOSINOPHIL / ABSOLUTE LYMPHOCYTE / ABSOLUTE MONOCYTE / BASOPHIL / EOSINOPHIL / ERYTHROCYTE COUNT / HEMATOCRIT / HEMOGLOBIN / LEUKOCYTE COUNT / LYMPHOCYTE / MEAN CORPUSCULAR HEMOGLOBIN / MONOCYTE / NEUTROPHIL / PLATELET COUNT: tissue Blood; for ALANINE AMINOTRANSFERASE / ALBUMIN / ALKALINE PHOSPHATASE / ASPARTATE AMINOTRANSFERASE / BLOOD UREA NITROGEN / CARBON DIOXIDE / CHLORIDE / CHOLESTEROL / CREATINE PHOSPHOKINASE / CREATININE / GLUCOSE / LACTATE DEHYDROGENASE / LIPASE / PHOSPHORUS / POTASSIUM / SODIUM / TOTAL BILIRUBIN / TOTAL PROTEIN / URIC ACID: tissue Plasma
Description: DrugMatrix - Regimen: Single

Rattus norvegicus [2] = organism: Rattus norvegicus; assay: DrugMatrix - Regimen: Daily Repeat; assay type: toxicity, organism-based, Sprague-Dawley; design: regimen Daily Repeat, gender Male, age 6-8 weeks; settings: in vivo, po, 0 mg/kg, 72 h, route oral GAVAGE, dose level Control, time 3 day, […]
[3] = 0 mg/kg, vehicle control, dose level Control

With `CC[C@H](C)C(=O)O[C@H]1C[C@H](O)C=C2C=C[C@H](C)[C@H](CC[C@@H](O)C[C@@H](O)CC(=O)O)[C@H]21` [PRAVASTATIN] the “MEAN CORPUSCULAR HEMOGLOBIN CONCENTRATION” value (Rattus norvegicus [1]; 0 mg/kg, dose level Control) was 30.5 G/DL, the “MEAN CORPUSCULAR VOLUME” value (Rattus norvegicus [1]; 0 mg/kg, dose level Control) was 67.21 fL and the ABSOLUTE BASOPHIL (Rattus norvegicus [1]; [3]) was 50 cells/µL. The ABSOLUTE EOSINOPHIL (Rattus norvegicus [1]; [3]) was 32.5 cells/µL, the ABSOLUTE LYMPHOCYTE (Rattus norvegicus [1]; [3]) was 7980 cells/µL and the ABSOLUTE MONOCYTE (Rattus norvegicus [1]; [3]) was 170 cells/µL. The BASOPHIL (Rattus norvegicus [1]; [3]) was 0.58%, the EOSINOPHIL (Rattus norvegicus [1]; [3]) was 0.34% and the “ERYTHROCYTE COUNT” value (Rattus norvegicus [1]; [3]) was 6.56 x10E6/uL. The HEMATOCRIT (Rattus norvegicus [1]; [3]) was 44.14%, the HEMOGLOBIN (Rattus norvegicus [1]; [3]) was 13.45 G/DL and the “LEUKOCYTE COUNT” value (Rattus norvegicus [1]; [3]) was 9.51 x10E3/uL. For the same compound, the LYMPHOCYTE (Rattus norvegicus [1]; [3]) was 83.6%, the “MEAN CORPUSCULAR HEMOGLOBIN” value (Rattus norvegicus [1]; [3]) was 20.5 pg and the MONOCYTE (Rattus norvegicus [1]; [3]) was 1.86%. For the same compound, the NEUTROPHIL (Rattus norvegicus [1]; [3]) was 12.7%, the “PLATELET COUNT” value (Rattus norvegicus [1]; [3]) was 1240.38 x10E3/uL and the “ALANINE AMINOTRANSFERASE” value (Rattus norvegicus [1]; [3]) was 47.12 u/L. The ALBUMIN (Rattus norvegicus [1]; [3]) was 3.59 G/DL, the “ALKALINE PHOSPHATASE” value (Rattus norvegicus [1]; [3]) was 461.38 u/L and the “ASPARTATE AMINOTRANSFERASE” value (Rattus norvegicus [1]; [3]) was 62.25 u/L. The “BLOOD UREA NITROGEN” value (Rattus norvegicus [1]; [3]) was 12.63 mg/dL, the “CARBON DIOXIDE” value (Rattus norvegicus [1]; [3]) was 39.5 mmol/L and the CHLORIDE (Rattus norvegicus [1]; [3]) was 105.38 MEQ/L. For the same compound, the CHOLESTEROL (Rattus norvegicus [1]; [3]) was 74.25 mg/dL, the “CREATINE PHOSPHOKINASE” value (Rattus norvegicus [1]; [3]) was 282.88 u/L and the CREATININE (Rattus norvegicus [1]; [3]) was 0.61 mg/dL. The GLUCOSE (Rattus norvegicus [1]; [3]) was 176.25 mg/dL, the “LACTATE DEHYDROGENASE” value (Rattus norvegicus [1]; [3]) was 190.25 u/L and the LIPASE (Rattus norvegicus [1]; [3]) was 28 u/L. For the same compound, the PHOSPHORUS (Rattus norvegicus [1]; [3]) was 12.68 mg/dL, the POTASSIUM (Rattus norvegicus [1]; [3]) was 6.6 MEQ/L and the SODIUM (Rattus norvegicus [1]; [3]) was 151.13 MEQ/L. The “TOTAL BILIRUBIN” value (Rattus norvegicus [1]; [3]) was 0.34 mg/dL, the “TOTAL PROTEIN” value (Rattus norvegicus [1]; [3]) was 6.09 G/DL and the “URIC ACID” value (Rattus norvegicus [1]; [3]) was 1.06 mg/dL. It also gave an ABSOLUTE BASOPHIL (Rattus norvegicus [1]; 1200 mg/kg, dose level High) of 12.5 cells/µL, an ABSOLUTE EOSINOPHIL (Rattus norvegicus [1]; 1200 mg/kg, dose level High) of 41.3 cells/µL and an ABSOLUTE LYMPHOCYTE (Rattus norvegicus [1]; 1200 mg/kg, dose level High) of 7270 cells/µL. It also gave an ABSOLUTE MONOCYTE (Rattus norvegicus [1]; 1200 mg/kg, dose level High) of 270 cells/µL, a BASOPHIL (Rattus norvegicus [1]; 1200 mg/kg, dose level High) of 0.35% and an EOSINOPHIL (Rattus norvegicus [1]; 1200 mg/kg, dose level High) of 0.46%. The “ERYTHROCYTE COUNT” value (Rattus norvegicus [1]; 1200 mg/kg, dose level High) was 6.38 x10E6/uL, the HEMATOCRIT (Rattus norvegicus [1]; 1200 mg/kg, dose level High) was 42.34% and the HEMOGLOBIN (Rattus norvegicus [1]; 1200 mg/kg, dose level High) was 12.95 G/DL. The “LEUKOCYTE COUNT” value (Rattus norvegicus [1]; 1200 mg/kg, dose level High) was 9.2 x10E3/uL, the LYMPHOCYTE (Rattus norvegicus [1]; 1200 mg/kg, dose level High) was 78.89% and the “MEAN CORPUSCULAR HEMOGLOBIN” value (Rattus norvegicus [1]; 1200 mg/kg, dose level High) was 20.29 pg. For the same compound, the “MEAN CORPUSCULAR HEMOGLOBIN CONCENTRATION” value (Rattus norvegicus [1]; 1200 mg/kg, dose level High) was 30.55 G/DL, the “MEAN CORPUSCULAR VOLUME” value (Rattus norvegicus [1]; 1200 mg/kg, dose level High) was 66.41 fL and the MONOCYTE (Rattus norvegicus [1]; 1200 mg/kg, dose level High) was 2.9%. The NEUTROPHIL (Rattus norvegicus [1]; 1200 mg/kg, dose level High) was 16.21%, the “PLATELET COUNT” value (Rattus norvegicus [1]; 1200 mg/kg, dose level High) was 1234.38 x10E3/uL and the “ALANINE AMINOTRANSFERASE” value (Rattus norvegicus [1]; 1200 mg/kg, dose level High) was 73.25 u/L. For the same compound, the ALBUMIN (Rattus norvegicus [1]; 1200 mg/kg, dose level High) was 3.64 G/DL, the “ALKALINE PHOSPHATASE” value (Rattus norvegicus [1]; 1200 mg/kg, dose level High) was 563.12 u/L and the “ASPARTATE AMINOTRANSFERASE” value (Rattus norvegicus [1]; 1200 mg/kg, dose level High) was 74.62 u/L. The “BLOOD UREA NITROGEN” value (Rattus norvegicus [1]; 1200 mg/kg, dose level High) was 12.25 mg/dL, the “CARBON DIOXIDE” value (Rattus norvegicus [1]; 1200 mg/kg, dose level High) was 36.62 mmol/L and the CHLORIDE (Rattus norvegicus [1]; 1200 mg/kg, dose level High) was 108 MEQ/L. The CHOLESTEROL (Rattus norvegicus [1]; 1200 mg/kg, dose level High) was 74.87 mg/dL, the “CREATINE PHOSPHOKINASE” value (Rattus norvegicus [1]; 1200 mg/kg, dose level High) was 344.5 u/L and the CREATININE (Rattus norvegicus [1]; 1200 mg/kg, dose level High) was 0.67 mg/dL. The GLUCOSE (Rattus norvegicus [1]; 1200 mg/kg, dose level High) was 193.13 mg/dL, the “LACTATE DEHYDROGENASE” value (Rattus norvegicus [1]; 1200 mg/kg, dose level High) was 126.88 u/L and the LIPASE (Rattus norvegicus [1]; 1200 mg/kg, dose level High) was 34.88 u/L. The PHOSPHORUS (Rattus norvegicus [1]; 1200 mg/kg, dose level High) was 12.5 mg/dL, the POTASSIUM (Rattus norvegicus [1]; 1200 mg/kg, dose level High) was 6.55 MEQ/L and the SODIUM (Rattus norvegicus [1]; 1200 mg/kg, dose level High) was 153.75 MEQ/L. The “TOTAL BILIRUBIN” value (Rattus norvegicus [1]; 1200 mg/kg, dose level High) was 0.27 mg/dL, the “TOTAL PROTEIN” value (Rattus norvegicus [1]; 1200 mg/kg, dose level High) was 6.12 G/DL and the “URIC ACID” value (Rattus norvegicus [1]; 1200 mg/kg, dose level High) was 1.09 mg/dL. The “ABSOLUTE BASOPHIL” value (Rattus norvegicus [2]; tissue Blood) was 0 CELLS/uL, the “ABSOLUTE EOSINOPHIL” value (Rattus norvegicus [2]; tissue Blood) was 14 CELLS/uL and the “ABSOLUTE LYMPHOCYTE” value (Rattus norvegicus [2]; tissue Blood) was 11144.67 CELLS/uL. For the same compound, the “ABSOLUTE MONOCYTE” value (Rattus norvegicus [2]; tissue Blood) was 22.5 CELLS/uL, the “ABSOLUTE SEGMENTED NEUTROPHIL” value (Rattus norvegicus [2]; tissue Blood) was 535.5 CELLS/uL and the BASOPHIL (Rattus norvegicus [2]; tissue Blood) was 0%. For the same compound, the EOSINOPHIL (Rattus norvegicus [2]; tissue Blood) was 0.17%, the “ERYTHROCYTE COUNT” value (Rattus norvegicus [2]; tissue Blood) was 5.08 x10E6/uL and the HEMATOCRIT (Rattus norvegicus [2]; tissue Blood) was 32.32%. For the same compound, the HEMOGLOBIN (Rattus norvegicus [2]; tissue Blood) was 12.87 G/DL, the “LEUKOCYTE COUNT” value (Rattus norvegicus [2]; tissue Blood) was 11.72 x10E3/uL and the LYMPHOCYTE (Rattus norvegicus [2]; tissue Blood) was 94.67%. For the same compound, the “MEAN CORPUSCULAR HEMOGLOBIN” value (Rattus norvegicus [2]; tissue Blood) was 25.37 pg, the “MEAN CORPUSCULAR HEMOGLOBIN CONCENTRATION” value (Rattus norvegicus [2]; tissue Blood) was 39.85 G/DL and the “MEAN CORPUSCULAR VOLUME” value (Rattus norvegicus [2]; tissue Blood) was 63.58 fL. For the same compound, the MONOCYTE (Rattus norvegicus [2]; tissue Blood) was 0.17%, the NEUTROPHIL (Rattus norvegicus [2]; tissue Blood) was 5% and the “NUCLEATED RED BLOOD CELLS” value (Rattus norvegicus [2]; tissue Blood) was 0 /100WBC. The “PLATELET COUNT” value (Rattus norvegicus [2]; tissue Blood) was 1084 x10E3/uL, the “ALANINE AMINOTRANSFERASE” value (Rattus norvegicus [2]; tissue Plasma) was 67.5 u/L and the ALBUMIN (Rattus norvegicus [2]; tissue Plasma) was 4.02 G/DL.
